Measured values: article PMC10653840, “A new class of protein sensor links spirochete pleomorphism, persistence, and chemotaxis” (mBio, 2023)

Columns and labels:
CheWS [1] = target: T1, CheWS (Treponema denticola, UniProt F7IUZ1); experiment: isothermal titration calorimetry with purified protein; format: binding; design: gene cheW-1; full-length CheWS (CheW-CheRlike), poly-His tag
Target sequence in this assay (F7IUZ1 entry or part of it): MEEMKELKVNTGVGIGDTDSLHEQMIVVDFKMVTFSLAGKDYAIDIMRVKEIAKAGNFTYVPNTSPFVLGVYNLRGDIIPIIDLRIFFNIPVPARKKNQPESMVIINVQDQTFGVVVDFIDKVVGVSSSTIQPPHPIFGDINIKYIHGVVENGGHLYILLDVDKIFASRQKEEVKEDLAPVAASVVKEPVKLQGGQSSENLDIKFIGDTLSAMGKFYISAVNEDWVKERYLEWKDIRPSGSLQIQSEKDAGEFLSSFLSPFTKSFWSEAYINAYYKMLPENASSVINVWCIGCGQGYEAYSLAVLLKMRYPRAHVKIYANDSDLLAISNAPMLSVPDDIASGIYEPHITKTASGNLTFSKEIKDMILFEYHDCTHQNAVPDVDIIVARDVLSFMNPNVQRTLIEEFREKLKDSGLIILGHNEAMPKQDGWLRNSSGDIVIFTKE

CheWS [2] = target: T1, CheWS; experiment: isothermal titration calorimetry with purified domain; format: binding; design: gene cheW-1; isolated CheRlike domain (residues 203–444)
Target sequence in this assay (F7IUZ1 entry or part of it): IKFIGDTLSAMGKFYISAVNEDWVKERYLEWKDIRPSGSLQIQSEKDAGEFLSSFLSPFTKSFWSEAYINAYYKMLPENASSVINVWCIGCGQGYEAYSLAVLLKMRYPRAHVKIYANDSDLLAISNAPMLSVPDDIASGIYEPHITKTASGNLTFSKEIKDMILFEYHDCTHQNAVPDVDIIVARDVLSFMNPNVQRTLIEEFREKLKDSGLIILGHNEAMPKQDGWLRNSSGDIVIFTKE

| SMILES | Kd (CheWS [1]) | Kd (CheWS [2]) |
| --- | --- | --- |
| Nc1ncnc2c1ncn2[C@@H]1O[C@H](CSCC[C@H](N)C(=O)O)[C@@H](O)[C@H]1O [SAH, S-adenosylhomocysteine] | ~17 µM | – |
| C[S+](CC[C@H](N)C(=O)[O-])C[C@H]1O[C@@H](n2cnc3c(N)ncnc32)[C@H](O)[C@@H]1O (some centres unmarked) [SAM, S-adenosylmethionine] | – | ~18 µM |
